From patent US10662171B2, “Antidiabetic bicyclic compounds” (Merck Sharp & Dohme Corp., priority 2014, dated 2020)

Molecular target: T1, human GPR40 (Homo sapiens, UniProt O14842)
T1 construct: expressed in transfected cells; host or cells: HEK cells stably expressing the aequorin reporter
Assay: Inositol Phosphate Turnover (IP1) Assay 2
Format: cell-based
Details: HEK cells stably expressing human GPR40; compound acoustically transferred; 60 minutes at 37 degrees
Description: Human and mouse GPR40 stable cell-lines were generated in CHO cells stably expressing NFAT BLA (Beta-lactamase). A human GPR40 stable cell-line was generated in HEK cells stably expressing the aequorin expressing reporter. The expression plasmids were transfected using lipofectamine (Life Technologies) following manufacturer's instructions. Stable cell-lines were generated following drug selection.
The assay is performed in 384-well format. HEK cells stably expressing human GPR40 are plated at 15,000 cells per well in growth medium (DMEM/10% fetal calf serum). Cell plates are then incubated 16 hours at 37 degrees in a 5% CO2 incubator.
Measurement of Inositol Phosphate Turnover (IP1) is performed using the CisBio IP-One kit (Part number 62IPAPEB). After the 16 hour incubation, the cells are washed with HEPES buffer and 10 ul of stimulation buffer (prepared as described in the kit) is added to each well. In a separate plate, compounds are diluted in DMSO (400-fold over the final concentration in the assay well) and 25 nl is acoustically transferred to the appropriate well in the assay cell plate. The plates were then incubated for 60 minutes at 37 degrees. 10 ul of detection buffer (also prepared as described in the IP-One kit) is added to each well and the plates are incubated for 60 minutes in the dark. The plates are then read in a Perkin Elmer EnVision or equivalent reader able to measure FRET. Fluorescent ratio of emission at 665 and 620 nm is then converted to IP1 concentration by back calculating from an IP1 standard curve prepared at the time of the assay.

T1 sequence (O14842 whole entry): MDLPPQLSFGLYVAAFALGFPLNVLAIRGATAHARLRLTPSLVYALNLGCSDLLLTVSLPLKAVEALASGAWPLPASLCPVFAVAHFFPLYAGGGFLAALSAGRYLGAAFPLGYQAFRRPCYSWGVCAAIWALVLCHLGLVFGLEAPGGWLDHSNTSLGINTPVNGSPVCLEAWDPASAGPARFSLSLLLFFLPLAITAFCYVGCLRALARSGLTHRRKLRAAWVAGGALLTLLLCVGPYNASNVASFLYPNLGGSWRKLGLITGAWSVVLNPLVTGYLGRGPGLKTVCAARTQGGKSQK

Compound | EC50 [nM]
COc1ccc(F)c(-c2ccc([C@H]3Cc4cc([C@H](C5CC5)[C@H](C)C(=O)O)ccc4CO3)cc2)c1 [Example 22, (2S,3R)-3-cyclopropyl-3-((R)-3-(2′-fluoro-5′-methoxy-1,1′-biphenyl-4-yl)isochroman-6-yl)-2-methylpropanoic acid] | 0.5
COc1cc(-c2ccc([C@@H]3Cc4cc([C@H](C5CC5)[C@H](C)C(=O)O)ccc4CO3)c(F)c2)ccn1 [Example 38A, (2S,3R)-3-cyclopropyl-3-((S)-3-(2-fluoro-4-(2-methoxypyridin-4-yl)phenyl)isochroman-6-yl)-2-methylpropanoic acid] | 4.2
COc1cc(-c2ccc([C@H]3Cc4cc([C@H](C5CC5)[C@H](C)C(=O)O)ccc4CO3)c(F)c2)ccn1 [Example 38B, (2S,3R)-3-cyclopropyl-3-((R)-3-(2-fluoro-4-(2-methoxy-pyridin-4-yl)phenyl)isochroman-6-yl)-2-methylpropanoic acid] | 24.5
C[C@H](C(=O)O)[C@H](c1ccc2c(c1)CC(C1CCN(c3ncccc3C(F)(F)F)CC1)OC2)C1CC1 (stereo partly drawn) [Example 40, (2S,3R)-3-cyclopropyl-2-methyl-3-(3-(1-(3-(trifluoromethyl)pyridin-2-yl)piperidin-4-yl)isochroman-6-yl)propanoic acid] | 54
